Test results: patent US11510888B2, “Alleviating oxidative stress disorders with PUFA derivatives” (Retrotope, Inc., priority 2009, dated 2022)

How the values were obtained:
[1] = test system: coq null mutants (Q-less yeast); conditions: for protection in the yeast model: compared with D4-linolenic acid
Procedure: FIG. 3. […] Yeast coq3, coq7 and coq9 null mutants were prepared in the W303 yeast genetic background (WT). Yeast strains were grown in YPD medium (1% Bacto-yeast extract, 2% Bacto-peptone, 2% dextrose) and harvested while in log phase growth (OD600nm=0.1-1.0). Cells were washed twice with sterile water and resuspended in phosphate buffer (0.10 M sodium phosphate, pH 6.2, 0.2% dextrose) to an OD600nm=0.2. Samples were removed and 1:5 serial dilutions starting at 0.20 OD/ml were plated on YPD plate medium, to provide a zero time untreated control (shown in top left panel). The designated fatty acids were added to 200 uM final concentration to 20 ml of yeast in phosphate buffer. At 2 h, 4 h, and 16 h samples were removed, 1:5 serial dilutions prepared, and spotted onto YPD plate medium. Pictures were taken after 2 days of growth at 30° C.
FIG. 4. […] The fatty acid sensitive assay was performed as described in FIG. 6-1, except that 100 ul aliquots were removed at 1, 2, and 4 h and, following dilution, spread onto YPD plates. Pictures were taken after 2 to 2.5 days, and the number of colonies counted. Yeast strains include Wild type (circles), atp2 (triangles), or coq3 (squares); Fatty acid treatments include oleic C18:1 (solid line), linolenic, C18:3, n-3 (dashed line) or 11,11,14,14-D4-linolenic, C18:3, n-3, (dotted line).
Q-less yeast (coq mutants) provide an ideal system to assess in vivo autoxidation of fatty acids. Coenzyme Q (ubiquinone or Q) serves as a small lipophilic antioxidant as well as an electron shuttle in the respiratory chain of the mitochondrial inner membrane. Ten S. cerevisiae genes (COQ1-COQ10) are required for coenzyme Q biosynthesis and function, and the deletion of any results in respiratory deficiency (Tran U C, Clarke C F. Mitochondrion 2007; 75,S62).
A plate dilution assay can be used to assess PUFA sensitivity. This assay can be performed by spotting serial five-fold dilutions of aliquots onto YPD plate media (FIG. 3). The sensitivity of the different strains can be observed by visual inspection of the density of cells in each spot.

WT (W303) yeast = conditions: 200 μM, 4 h incubation
Procedure: Uptake of exogenously supplied fatty acids by yeast. WT (W303) yeast were harvested at log phase and incubated in the presence of 200 μM of the designated fatty acid for either 0 or 4 h.
Chromatograms of the yeast extracts subjected to GC-MS analyses. The different traces represent the 0 and 4 h incubations, respectively. The peak area of Each FAME (C18:1, C18:3 and D4-linolenic) was divided by the peak area of the C17:0 standard, quantified with a calibration curve.
Wild-type yeast were harvested during log phase growth and incubated in the presence of exogenously added fatty acid (for 0 or 4 h) in the presence of phosphate buffer plus 0.20% dextrose, as described for the fatty acid sensitivity assay. Cells were harvested, washed twice with 10 ml sterile water, and the yeast cell pellets were then processed by alkaline methanolysis as described above. The fatty acids are detected as methylesters (FAMEs) following GC-MS with C17:0 added as an internal standard (FIG. 6). The amounts of 18:3 and D4 detected after 4 h incubation were extrapolated from the calibration curve.

[2] = mouse, in vivo; cited from earlier work
[3] = test system: coq null mutants (Q-less yeast); conditions: cited from earlier work; for sensitivity of Q-less yeast to fatty acid treatment: compared with wild-type parental strain
[4] = test system: wild-type (strain W303-1B) cells; conditions: four hour treatment; cited from earlier work

SMILES: [2H]C([2H])(/C=C\C/C=C\CC)C/C=C\CCCCCCC(=O)O [11, 11-D2-linolenic acid, 11,11-Dideutero-cis,cis,cis-octadeca-8,12,15-trienoic acid]
- protection in the yeast model [1]: comparable protection

SMILES: [2H]C([2H])(/C=C\CC)/C=C\CC/C=C\CCCCCCC(=O)O [14, 14-D2-linolenic acid, 14,14-Dideutero-cis,cis,cis-octadeca-8,12,15-trienoic acid]
- protection in the yeast model [1]: comparable protection

SMILES: [2H]C([2H])(/C=C\CC)/C=C\C([2H])([2H])/C=C\CCCCCCCC(=O)O [D4-linolenic acid, 11,11,14,14-Tetradeutero-cis,cis,cis-9,12,15-Octadecatrienoic acid]
- viability of cells compared with oleic acid treatment ([1]; quantitative colony counting): similar
- incorporation of exogenously added fatty acid by yeast (WT (W303) yeast): avidly incorporate

SMILES: CCCCC/C=C\C/C=C\CCCCCCCC(=O)O [LA, (9Z,12Z)-9,12-Octadecadienoic acid]
- time at which higher-order PUFA concentration peaks in brain [2]: ≤ 8 h

SMILES: CCCCC/C=C\C/C=C\C/C=C\C/C=C\CCCC(=O)O [arachidonic acid]
- sensitivity of Q-less yeast to fatty acid treatment [3]: hypersensitive

SMILES: CC/C=C\C/C=C\C/C=C\CCCCCCCC(=O)O [linolenic acid, (9Z,12Z,15Z)-9,12,15-Octadecatrienoic acid]
- viable Q-less (coq2, coq3, and coq5) yeast mutants ([3]; following a four hour treatment): Less than 1%
- viability / cell killing of coq mutants ([1]; 200 uM fatty acid, plate dilution assay): dramatic loss of viability
- reduction of viability of the coq mutants ([1]; quantitative colony counting, treatment for 4 h): more than 100 fold
- incorporation of exogenously added fatty acid by yeast (WT (W303) yeast): avidly incorporate
- wild-type cells remaining viable [4]: 70%
- time at which higher-order PUFA concentration peaks in brain [2]: ≤ 8 h

SMILES: CCCCCCCC/C=C\CCCCCCCC(=O)O [oleic acid]
- sensitivity of Q-less yeast to fatty acid treatment [3]: behave the same as the wild-type parental strain
